The assay addresses T1, Cbl-b (Homo sapiens, UniProt Q13191).
T1 construct: Cbl-b-HiBit KI Jurkat Cells were purchased from Promega; host or cells: Cbl-b-HiBiT knock-in Jurkat cells
Put plainly: Cbl-b Degradation Method B (Nano-Glo HiBiT lytic detection). It is filed as cell-based. Particulars: Cbl-b-HiBit KI Jurkat Cells, incubated at least 6-24 hours; for DC50: half maximal degradation, read-out: Cbl-b Degredation Method B IC50; for Dmax: maximum degradation observed, read-out: Cbl-b Degredation Method B Dmax (%). An outline of the steps: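 Cbl-b-HiBiT knock-in Jurkat cells (20,000/well) were treated after ~24 h plating with an 11-point 1:3 series for 6-24 h at 37° C. Remaining Cbl-b measured by Nano-Glo HiBiT lytic luminescence. DC50 and Dmax expressed as % of control.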

Each structure is given as a SMILES string.

T1 sequence (Q13191 whole entry): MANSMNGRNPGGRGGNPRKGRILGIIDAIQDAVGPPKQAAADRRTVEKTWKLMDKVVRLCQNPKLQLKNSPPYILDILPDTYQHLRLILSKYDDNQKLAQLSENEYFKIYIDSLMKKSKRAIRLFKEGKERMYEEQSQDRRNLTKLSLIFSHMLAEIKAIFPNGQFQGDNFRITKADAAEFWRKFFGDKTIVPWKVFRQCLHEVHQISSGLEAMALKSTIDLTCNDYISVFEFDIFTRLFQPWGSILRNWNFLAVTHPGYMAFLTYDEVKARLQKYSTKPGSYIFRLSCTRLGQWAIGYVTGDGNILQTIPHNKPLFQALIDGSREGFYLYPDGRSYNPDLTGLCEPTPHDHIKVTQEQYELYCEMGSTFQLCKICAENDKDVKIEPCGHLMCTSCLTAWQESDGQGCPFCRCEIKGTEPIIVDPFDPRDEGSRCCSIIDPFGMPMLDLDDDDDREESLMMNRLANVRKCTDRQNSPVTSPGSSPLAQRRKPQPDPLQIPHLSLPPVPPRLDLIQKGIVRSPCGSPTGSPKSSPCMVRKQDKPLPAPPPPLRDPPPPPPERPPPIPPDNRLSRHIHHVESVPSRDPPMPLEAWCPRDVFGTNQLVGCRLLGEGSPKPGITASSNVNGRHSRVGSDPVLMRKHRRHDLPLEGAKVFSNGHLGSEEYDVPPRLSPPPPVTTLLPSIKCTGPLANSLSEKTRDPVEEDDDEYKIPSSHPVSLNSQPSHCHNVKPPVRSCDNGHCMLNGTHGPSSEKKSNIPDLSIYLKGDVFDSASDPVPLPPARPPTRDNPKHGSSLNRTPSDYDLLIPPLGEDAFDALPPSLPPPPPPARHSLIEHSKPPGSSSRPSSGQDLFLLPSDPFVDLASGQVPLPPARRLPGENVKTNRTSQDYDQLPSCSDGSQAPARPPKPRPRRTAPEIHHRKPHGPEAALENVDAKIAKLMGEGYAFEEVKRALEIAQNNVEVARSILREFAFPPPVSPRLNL

For the molecule `CC(C)n1c(=O)n(C2CCC(=O)NC2=O)c2cccc(N3CCC(CN4CCN(C[C@H]5CCCN(Cc6cc7c(c(C(F)(F)F)c6)CN(c6cccc(C8(Cc9nncn9C)CC(C#N)C8)c6)C7=O)C5)C(C)(C)C4)CC3)c21` (stereo partly drawn) [Example 288, (1r*,3r*)-3-[3-(6-{[(3S)-3-{[4-({1-[1-(2,6-dioxopiperidin-3-yl)-2-oxo-3-(propan-2-yl)-2,3-dihydro-1H-1,3-benzodiazol-4-yl]piperidin-4-yl}methyl)-2,2-dimethylpiperazin-1-yl]methyl}piperidin-1-yl]methyl}-1-oxo-4-(trifluoromethyl)-2,3-dihydro-1H-isoindol-2-yl)phenyl]-3-[(4-methyl-4H-1,2,4-triazol-3-yl)methyl]cyclobutane-1-carbonitrile], the DC50 was > 500 nM.
Still for that read-out and setting: for `Cc1cc(N2CCC(CN3CCC4(CC3)CN(c3ccc5cn(-c6cccc(C7(Cc8nncn8C)COC7)c6)nc5c3)C4)CC2)c(F)c2c1C(=O)N(C1CCC(=O)NC1=O)C2` (centres unmarked) [Example 261, 3-{4-fluoro-7-methyl-5-[4-({2-[2-(3-{3-[(4-methyl-4H-1,2,4-triazol-3-yl)methyl]oxetan-3-yl}phenyl)-2H-indazol-6-yl]-2,7-diazaspiro[3.5]nonan-7-yl}methyl)piperidin-1-yl]-1-oxo-2,3-dihydro-1H-isoindol-2-yl}piperidine-2,6-dione] the value was > 500 nM; for `Cn1cnnc1CC1(c2cccc(N3Cc4c(cc(CN5CC6(C5)CN(CC5CCN(c7ccc8c(c7)C(=O)N(C7CCC(=O)NC7=O)C8=O)CC5)C6)cc4C(F)(F)F)C3=O)c2)COC1` (centres unmarked) [Example 68, 2-(2,6-dioxopiperidin-3-yl)-5-{4-[(6-{[2-(3-{3-[(4-methyl-4H-1,2,4-triazol-3-yl)methyl]oxetan-3-yl}phenyl)-3-oxo-7-(trifluoromethyl)-2,3-dihydro-1H-isoindol-5-yl]methyl}-2,6-diazaspiro[3.3]heptan-2-yl)methyl]piperidin-1-yl}-2,3-dihydro-1H-isoindole-1,3-dione], > 500 nM; for `COc1cc(N2CCN(CC3CCN(Cc4cc5c(c(C(F)(F)F)c4)CN(c4cccc(C6(Cc7nncn7C)COC6)c4)C5=O)CC3)CC2)cc2c1C(=O)N(C1CCC(=O)NC1=O)C2=O` (centres unmarked) [Example 51, 2-(2,6-dioxopiperidin-3-yl)-4-methoxy-6-{4-[(1-{[2-(3-{3-[(4-methyl-4H-1,2,4-triazol-3-yl)methyl]oxetan-3-yl}phenyl)-3-oxo-7-(trifluoromethyl)-2,3-dihydro-1H-isoindol-5-yl]methyl}piperidin-4-yl)methyl]piperazin-1-yl}-2,3-dihydro-1H-isoindole-1,3-dione], > 500 nM.
Still for that read-out and setting: then `Cn1cnnc1CC1(c2cccc(N3Cc4c(cc(CN5CCC(CCCN6CCN(c7ccc8c(c7)C(=O)N(C7CCC(=O)NC7=O)C8=O)CC6)CC5)cc4C(F)(F)F)C3=O)c2)COC1` (centres unmarked) [Example 61, 2-(2,6-dioxopiperidin-3-yl)-5-{4-[3-(1-{[2-(3-{3-[(4-methyl-4H-1,2,4-triazol-3-yl)methyl]oxetan-3-yl}phenyl)-3-oxo-7-(trifluoromethyl)-2,3-dihydro-1H-isoindol-5-yl]methyl}piperidin-4-yl)propyl]piperazin-1-yl}-2,3-dihydro-1H-isoindole-1,3-dione], with > 500 nM.
For orientation: Dmax means the greatest extent of degradation seen. As to `Cc1cc(N2CCC(CN3CCC4(CC3)CN(c3cc5c(c(C(F)(F)F)c3)CN(c3cccc(C6(Cc7nncn7C)COC6)c3)C5=O)C4)CC2)c(F)c2c1C(=O)N(C1CCC(=O)NC1=O)C2` (centres unmarked) [Example 12, 3-{4-fluoro-7-methyl-5-[4-({2-[2-(3-{3-[(4-methyl-4H-1,2,4-triazol-3-yl)methyl]oxetan-3-yl}phenyl)-3-oxo-7-(trifluoromethyl)-2,3-dihydro-1H-isoindol-5-yl]-2,7-diazaspiro [3.5]nonan-7-yl}methyl)piperidin-1-yl]-1-oxo-2,3-dihydro-1H-isoindol-2-yl}piperidine-2,6-dione], the DC50 was < 5 nM and the Dmax is > 70%.
For `Cc1cc(N2CCC(CN3CCC4(CC3)CN(c3cc5c(c(C(F)(F)F)c3)CN(c3cccc(C6(Cc7nncn7C)CC6)c3)C5=O)C4)CC2)c(F)c2c1C(=O)N(C1CCC(=O)NC1=O)C2` (centres unmarked) [Example 191, 3-{4-fluoro-7-methyl-5-[4-({2-[2-(3-{1-[(4-methyl-4H-1,2,4-triazol-3-yl)methyl]cyclopropyl}phenyl)-3-oxo-7-(trifluoromethyl)-2,3-dihydro-1H-isoindol-5-yl]-2,7-diazaspiro[3.5]nonan-7-yl}methyl)piperidin-1-yl]-1-oxo-2,3-dihydro-1H-isoindol-2-yl}piperidine-2,6-dione], in that order: < 5 nM and 35 to 70%.
As to `Cn1cnnc1CC1(c2cccc(N3Cc4c(cc(CN5CCC[C@H](CN6CC[C@@H](OC7CCN(c8ccc9c(c8F)CN(C8CCC(=O)NC8=O)C9=O)CC7)CC6(C)C)C5)cc4C(F)(F)F)C3=O)c2)CC(C#N)C1` (single isomer, unassigned) [Example 291, (1r**,3r**)-3-[3-(6-{[(3S)-3-{[(4R*)-4-({1-[2-(2,6-dioxopiperidin-3-yl)-4-fluoro-1-oxo-2,3-dihydro-1H-isoindol-5-yl]piperidin-4-yl}oxy)-2,2-dimethylpiperidin-1-yl]methyl}piperidin-1-yl]methyl}-1-oxo-4-(trifluoromethyl)-2,3-dihydro-1H-isoindol-2-yl)phenyl]-3-[(4-methyl-4H-1,2,4-triazol-3-yl)methyl]cyclobutane-1-carbonitrile], the DC50 was > 500 nM.
For `CC1c2nc(N3CCC(OC4CCC(CN5[C@H](C)CN(Cc6cc7c(c(C(F)(F)F)c6)CN(c6cccc(C8(Cc9nncn9C)COC8)c6)C7=O)C[C@@H]5C)CC4)CC3)ccc2C(=O)N1C1CCC(=O)NC1=O` (stereo partly drawn) [Example 243, 3-[7-methyl-5-oxo-2-(4-{[(1rs,4rs)-4-{[(2R,6S)-2,6-dimethyl-4-{[2-(3-{3-[(4-methyl-4H-1,2,4-triazol-3-yl)methyl]oxetan-3-yl}phenyl)-3-oxo-7-(trifluoromethyl)-2,3-dihydro-1H-isoindol-5-yl]methyl}piperazin-1-yl]methyl}cyclohexyl]oxy}piperidin-1-yl)-5H,6H,7H-pyrrolo[3,4-b]pyridin-6-yl]piperidine-2,6-dione], the DC50 is < 5 nM and the maximal degradation (Dmax) was > 70%.
Regarding `COc1c(N2CCC(OC3CCC4(CC3)CN(c3cc5c(c(C(F)(F)F)c3)CN(c3cccc(C6(Cc7nncn7C)COC6)c3)C5=O)C4)CC2)ccc2c1CN(C1CCC(=O)NC1=O)C2=O` (centres unmarked) [Example 149, 3-[4-methoxy-5-[4-[[2-[2-[3-[3-[(4-methyl-1,2,4-triazol-3-yl)methyl]oxetan-3-yl]phenyl]-3-oxo-7-(trifluoromethyl)isoindolin-5-yl]-2-azaspiro[3.5]nonan-7-yl]oxy]-1-piperidyl]-1-oxo-isoindolin-2-yl]piperidine-2,6-dione], the DC50 lay within 5 to 50 nM and the Dmax is 35 to 70%.
For the molecule `C[C@@H]1c2nc(N3CCC(O[C@H]4CC[C@H](CN5CCN(Cc6cc7c(c(C(F)(F)F)c6)CN(c6cccc(C8(Cc9nncn9C)CC(C#N)C8)c6)C7=O)[C@@H](C)C5)CC4)CC3)ccc2C(=O)N1C1CCC(=O)NC1=O` (single isomer, unassigned) [Example 247, (1r***,3r***)-3-[3-(6-{[(2S)-2-methyl-4-{[(1r**,4r**)-4-({1-[(7R*)-6-(2,6-dioxopiperidin-3-yl)-7-methyl-5-oxo-5H,6H,7H-pyrrolo[3,4-b]pyridin-2-yl]piperidin-4-yl}oxy)cyclohexyl]methyl}piperazin-1-yl]methyl}-1-oxo-4-(trifluoromethyl)-2,3-dihydro-1H-isoindol-2-yl)phenyl]-3-[(4-methyl-4H-1,2,4-triazol-3-yl)methyl]cyclobutane-1-carbonitrile], the DC50 is < 5 nM and the greatest degradation seen (Dmax) is > 70%.
`CC1c2nc(N3CCC(OC4CCC(CN5CC6CCC(C5)N6c5cc6c(c(C(F)(F)F)c5)CN(c5cccc(C7(Cc8nncn8C)CC(C#N)C7)c5)C6=O)CC4)CC3)ccc2C(=O)N1C1CCC(=O)NC1=O` (centres unmarked) [Example 183, (1r,3r)-3-[(4-methyl-4H-1,2,4-triazol-3-yl)methyl]-3-{3-[1-oxo-6-(3-{[(1r,4r)-4-({1-[6-(2,6-dioxopiperidin-3-yl)-7-methyl-5-oxo-5H,6H,7H-pyrrolo[3,4-b]pyridin-2-yl]piperidin-4-yl}oxy)cyclohexyl]methyl}-3,8-diazabicyclo[3.2.1]octan-8-yl)-4-(trifluoromethyl)-2,3-dihydro-1H-isoindol-2-yl]phenyl}cyclobutane-1-carbonitrile]: the DC50 was 5 to 50 nM and the greatest degradation seen (Dmax) was < 35%.
Regarding `Cn1cnnc1CC1(c2cccc(N3Cc4c(cc(CN5CCN([C@H]6CC[C@H](Nc7ccc8c(c7)C(=O)N(C7CCC(=O)NC7=O)C8=O)CC6)CC5)cc4C(F)(F)F)C3=O)c2)COC1` (some centres unmarked) [Example 44, 2-(2,6-dioxopiperidin-3-yl)-5-{[(1r,4r)-4-(4-{[2-(3-{3-[(4-methyl-4H-1,2,4-triazol-3-yl)methyl]oxetan-3-yl}phenyl)-3-oxo-7-(trifluoromethyl)-2,3-dihydro-1H-isoindol-5-yl]methyl}piperazin-1-yl)cyclohexyl]amino}-2,3-dihydro-1H-isoindole-1,3-dione], the DC50 is > 500 nM.
Still for that read-out and setting: for `Cn1cnnc1CC1(c2cccc(-n3cc4ccc(CN5CCC[C@H](CN6CCN(C[C@H]7CC[C@H](OC8CCN(c9ccc%10c(c9F)CN(C9CCC(=O)NC9=O)C%10=O)CC8)CC7)CC6)C5)cc4n3)c2)COC1` (stereo partly drawn) [Example 147, 3-[4-fluoro-5-[4-[4-[[4-[[(3S)-1-[[2-[3-[3-[(4-methyl-1,2,4-triazol-3-yl)methyl]oxetan-3-yl]phenyl]indazol-6-yl]methyl]-3-piperidyl]methyl]piperazin-1-yl]methyl]cyclohexoxy]-1-piperidyl]-1-oxo-isoindolin-2-yl]piperidine-2,6-dione] the value was > 500 nM.

(Values after US20260184710A1, “CASITAS B-LINEAGE LYMPHOMA PROTOONCOGENE B (CBL-B) DEGRADING COMPOUNDS AND ASSOCIATED METHODS OF USE” (Arvinas Operations, Inc., priority 2022, published 2026).)
